Source: patent publication US9296747B1, “Piperidylpyrimidine derivatives as modulators of protein kinase inhibitors and of vascular endothelial growth factor receptor 2” (Allergan, Inc., priority 2014, dated 2016)

How the values were obtained:
[1] = biological target: VEGFR2 (purified cytoplasmic domain KDR protein) (Homo sapiens (Human), UniProt P35968); assay: VEGFR2 Kinase Assay (biochemical KDR kinase, poly-Glu-Tyr ELISA); settings: 2.7 μM ATP, 15 minute incubation at 30° C.
Experimental: VEGFR2 Kinase Assay […] Test compounds were reconstituted in 100% DMSO and added to the reaction to give a final DMSO concentration of 5%. […] Following a 15 minute incubation at 30° C., the reactions were washed 2 mls per well PBS-T. 100 μl of a monoclonal anti-phosphotyrosine antibody-peroxidase conjugate diluted 1:10,000 in PBS-T was added to the wells for 30 minutes. Following a 2 mls per well wash with PBS-Tween-20, 100 μl of 0-Phenylenediamine Dihydrochloride in phosphate-citrate buffer, containing urea hydrogen peroxide, was added to the wells for 7-10 minutes as a colorimetric substrate for the peroxidase. The reaction was terminated by the addition of 100 μl of 2.5N H2SO4 to each well and read using a microplate ELISA reader set at 492 nm. IC50 values for compound inhibition were calculated directly from graphs of optical density (arbitrary units) versus compound concentration following subtraction of blank values.

[2] = biological target: recombinant human GST-PKR (Homo sapiens (Human), UniProt P19525); assay: PKR KinaseGlo Assay; type: biochemical; settings: 6.6 uM ATP, 10 minutes at room temperature
Experimental: Commercially available recombinant human GST-PKR (SignalChem, Canada; 1.5 uM-2 uM stock) is diluted to 500 nM in assay buffer (20 mM Tris-HCl, pH 7.2, 10 mM KCl, 10 mM MgCl2, 10% glycerol). Preactivated PKR is dispensed to 384/96-well black plates at 3.125/12.5 uls/well using the liquid handler Janus. Appropriate dilutions of inhibitors are added to 384/96-well plate followed by 6.6 uM ATP (final) and incubated for 10 minutes at room temperature. The remaining ATP/well is determined by adding 6.25/25 uls/well Kinase-Glo assay mix (Promega) and luminescence is measured on EnVision luminescence plate reader (integration time, 0.2 sec; Perkin-Elmer, Massachusetts, USA). The % inhibition for the compounds is calculated using ATP only (100% inhibition) and PKR+ATP (0% inhibition). […] values are determined by plotting % activity versus inhibitor concentration. Curves are fitted using Activity base XLfit (IDBS, UK) using the formula— • 4 Parameter Logistic Model fit=(A+((B−A)/(1+(10^((C−x)*D))))) inv=(C−(log(((B−A)/(y−A))−1)/D)) res=(y−fit)

[3] = biological target: PDGFRβ (purified cytoplasmic domain PDGFR-b protein) (Homo sapiens (Human), UniProt P09619); assay: PDGFRβ Kinase Assay (biochemical, poly-Glu-Tyr ELISA); settings: 36 μM ATP, 60 minute incubation at 30° C.
Experimental: Biochemical PDGFRβ kinase assays were performed in 96 well microtiter plates that were coated overnight with 75 μg of poly-Glu-Tyr (4:1) in 10 mM Phosphate Buffered Saline (PBS), pH 7.4. The coated plates were washed with 2 mls per well PBS+0.05% Tween-20 (PBS-T), blocked by incubation with PBS containing 1% BSA, then washed with 2 mls per well PBS-T prior to starting the reaction. Reactions were carried out in 100 μL reaction volumes containing 36 μM ATP in kinase buffer (50 mM Hepes buffer pH 7.4, 20 mM MgCl2, 0.1 mM MnCl2 and 0.2 mM Na3VO4). Test compounds were reconstituted in 100% DMSO and added to the reaction to give a final DMSO concentration of 5%. Reactions were initiated by the addition 20 ul per well of kinase buffer containing 200-300 ng purified cytoplasmic domain PDGFR-b protein (Millipore). Following a 60 minute incubation at 30° C., the reactions were washed 2 mls per well PBS-T. 100 μl of a monoclonal anti-phosphotyrosine antibody-peroxidase conjugate diluted 1:10,000 in PBS-T was added to the wells for 30 minutes. Following a 2 mls per well wash with PBS-Tween-20, 100 μl of 0-Phenylenediamine Dihydrochloride in phosphate-citrate buffer, containing urea hydrogen peroxide, was added to the wells for 7-10 minutes as a colorimetric substrate for the peroxidase. The reaction was terminated by the addition of 100 μl of 2.5N H2SO4 to each well and read using a microplate ELISA reader set at 492 nm. IC50 values for compound inhibition were calculated directly from graphs of optical density (arbitrary units) versus compound concentration following subtraction of blank values.

Chain of recombinant human GST-PKR (P19525 whole entry): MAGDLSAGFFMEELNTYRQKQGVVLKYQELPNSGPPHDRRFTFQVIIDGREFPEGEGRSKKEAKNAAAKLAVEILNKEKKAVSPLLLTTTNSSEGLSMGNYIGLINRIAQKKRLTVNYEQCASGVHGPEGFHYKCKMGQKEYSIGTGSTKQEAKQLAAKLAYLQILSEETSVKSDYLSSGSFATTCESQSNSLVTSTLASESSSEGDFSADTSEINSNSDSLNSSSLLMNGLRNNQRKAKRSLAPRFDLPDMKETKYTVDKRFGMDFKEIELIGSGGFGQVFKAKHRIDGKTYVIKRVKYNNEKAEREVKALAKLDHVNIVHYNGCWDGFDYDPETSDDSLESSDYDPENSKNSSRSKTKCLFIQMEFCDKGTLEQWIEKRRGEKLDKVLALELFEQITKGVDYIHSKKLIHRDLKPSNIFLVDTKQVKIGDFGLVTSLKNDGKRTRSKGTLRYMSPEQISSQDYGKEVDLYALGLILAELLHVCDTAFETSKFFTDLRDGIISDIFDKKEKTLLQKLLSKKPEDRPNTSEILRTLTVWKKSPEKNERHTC
Chain of VEGFR2 (purified cytoplasmic domain KDR protein) (P35968 786-1356): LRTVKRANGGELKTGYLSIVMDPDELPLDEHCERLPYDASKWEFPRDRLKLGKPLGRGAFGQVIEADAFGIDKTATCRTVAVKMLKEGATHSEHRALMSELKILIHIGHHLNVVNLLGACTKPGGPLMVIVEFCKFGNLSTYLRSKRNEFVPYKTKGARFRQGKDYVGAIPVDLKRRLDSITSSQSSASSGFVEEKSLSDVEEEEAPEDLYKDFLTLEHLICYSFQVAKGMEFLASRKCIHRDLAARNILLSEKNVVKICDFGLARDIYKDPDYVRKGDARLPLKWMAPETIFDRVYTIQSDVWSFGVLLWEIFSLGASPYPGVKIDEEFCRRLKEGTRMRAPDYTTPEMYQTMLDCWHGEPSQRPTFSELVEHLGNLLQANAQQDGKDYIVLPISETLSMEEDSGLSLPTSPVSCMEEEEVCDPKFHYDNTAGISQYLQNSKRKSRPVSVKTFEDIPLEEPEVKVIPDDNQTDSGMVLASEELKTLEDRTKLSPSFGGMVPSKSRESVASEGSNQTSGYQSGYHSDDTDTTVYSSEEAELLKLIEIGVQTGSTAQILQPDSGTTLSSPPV
Chain of PDGFRβ (purified cytoplasmic domain PDGFR-b protein) (P09619 554-1106): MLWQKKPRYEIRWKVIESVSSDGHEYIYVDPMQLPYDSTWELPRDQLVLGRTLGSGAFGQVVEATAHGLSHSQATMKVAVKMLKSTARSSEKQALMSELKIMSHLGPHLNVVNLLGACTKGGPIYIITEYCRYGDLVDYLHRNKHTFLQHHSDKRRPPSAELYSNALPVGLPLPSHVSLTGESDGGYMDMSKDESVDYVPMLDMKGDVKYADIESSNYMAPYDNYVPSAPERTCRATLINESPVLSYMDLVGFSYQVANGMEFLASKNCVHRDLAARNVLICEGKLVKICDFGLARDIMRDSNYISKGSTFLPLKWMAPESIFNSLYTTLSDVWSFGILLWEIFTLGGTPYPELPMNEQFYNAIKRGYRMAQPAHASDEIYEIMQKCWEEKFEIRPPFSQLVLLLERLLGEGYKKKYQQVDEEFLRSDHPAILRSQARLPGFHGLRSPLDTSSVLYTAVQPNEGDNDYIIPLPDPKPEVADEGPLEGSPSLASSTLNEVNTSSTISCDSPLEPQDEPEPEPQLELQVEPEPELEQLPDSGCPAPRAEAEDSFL

Row | Molecule | IC50 [1] | IC50 [2] | IC50 [3]
1 | N-phenyl-6-(pyridin-3-ylcarbonyl)-5,6,7,8-tetrahydropyrido[4,3-d]pyrimidin-2-amine [Example 2] | > 100 µM | 0.089 µM | 
2 | COc1cccc(Nc2ncc3c(n2)CCN(C(=O)c2cccnc2)C3)c1 [Example 6, N-(3-methoxyphenyl)-6-(pyridin-3-ylcarbonyl)-5,6,7,8-tetrahydropyrido[4,3-d]pyrimidin-2-amine] | 0.443 µM | > 40 µM | 
3 | O=C(Nc1cccnc1)N1CCc2nc(Nc3ccccc3)ncc2C1 [Example 3, 2-anilino-N-pyridin-3-yl-7,8-dihydropyrido[4,3-d]pyrimidine-6(5H)-carboxamide] | > 10 µM | 0.282 µM | 
4 | COc1cc(Nc2ncc3c(n2)CCN(C(=O)c2cccs2)C3)cc(OC)c1OC [Example 13, 6-(2-thienylcarbonyl)-N-(3,4,5-trimethoxyphenyl)-5,6,7,8-tetrahydropyrido[4,3-d]pyrimidin-2-amine] | 0.008 µM |  | 
5 | COc1cc(Nc2ncc3c(n2)CCN(C(=O)c2cccnc2)C3)cc(OC)c1 [Example 17, N-(3,5-dimethoxyphenyl)-6-(pyridin-3-ylcarbonyl)-5,6,7,8-tetrahydropyrido[4,3-d]pyrimidin-2-amine] |  | 0.13 µM | 
6 | COc1ccccc1Nc1ncc2c(n1)CCN(C(=O)c1cccnc1)C2 [Example 7, N-(2-methoxyphenyl)-6-(pyridin-3-ylcarbonyl)-5,6,7,8-tetrahydropyrido[4,3-d]pyrimidin-2-amine] | 0.01 µM |  | 0.244 µM
7 | COc1cc(Nc2ncc3c(n2)CCN(C(=O)c2occc2C)C3)cc(OC)c1OC [Example 11, 6-(3-methyl-2-furoyl)-N-(3,4,5-trimethoxyphenyl)-5,6,7,8-tetrahydropyrido[4,3-d]pyrimidin-2-amine] | 0.006 µM |  | 0.239 µM
8 | COc1cc(Nc2ncc3c(n2)CCN(C(=O)c2ccccn2)C3)cc(OC)c1OC [Example 15, 6-(pyridin-2-ylcarbonyl)-N-(3,4,5-trimethoxyphenyl)-5,6,7,8-tetrahydropyrido[4,3-d]pyrimidin-2-amine] | 1.85 µM | 2.82 µM | 
9 | Cn1nccc1Nc1ncc2c(n1)CCN(C(=O)c1cccnc1)C2 [Example 8, N-(1-methyl-1H-pyrazol-5-yl)-6-(pyridin-3-ylcarbonyl)-5,6,7,8-tetrahydropyrido[4,3-d]pyrimidin-2-amine] | 0.016 µM |  | 0.13 µM
10 | COc1ccc(Nc2ncc3c(n2)CCN(C(=O)c2cccnc2)C3)cc1 [Example 5, N-(4-methoxyphenyl)-6-(pyridin-3-ylcarbonyl)-5,6,7,8-tetrahydropyrido[4,3-d]pyrimidin-2-amine] | 0.005 µM | > 40 µM | 0.017 µM
11 | COc1ccc(Nc2ncc3c(n2)CCN(C(=O)c2cccnc2)C3)cc1OC [Example 16, N-(3,4-dimethoxyphenyl)-6-(pyridin-3-ylcarbonyl)-5,6,7,8-tetrahydropyrido[4,3-d]pyrimidin-2-amine] |  | 0.176 µM | 
12 | COc1cc(Nc2ncc3c(n2)CCN(C(=O)c2cc(C)nn2C)C3)cc(OC)c1OC [Example 12, 6-[(1,3-dimethyl-1H-pyrazol-5-yl)carbonyl]-N-(3,4,5-trimethoxyphenyl)-5,6,7,8-tetrahydropyrido[4,3-d]pyrimidin-2-amine] | 0.005 µM |  | 0.019 µM
